One compound from PMC4646072 (Chemistry (Weinheim an der Bergstrasse, Germany), 2015) can be followed below.

The target in the experiment is AgtA (His6AgtA) (Dictyostelium discoideum, UniProt Q54RP0). Briefly: radiometric galactosyl transfer from UDP-[3H]Gal. Particulars: 10 µM UDP-[3H]Gal, 60 min; acceptor substrate. The experiment is classed as biochemical.

SMILES strings stand for the structures.

Chain of AgtA (His6AgtA) (Q54RP0 whole entry): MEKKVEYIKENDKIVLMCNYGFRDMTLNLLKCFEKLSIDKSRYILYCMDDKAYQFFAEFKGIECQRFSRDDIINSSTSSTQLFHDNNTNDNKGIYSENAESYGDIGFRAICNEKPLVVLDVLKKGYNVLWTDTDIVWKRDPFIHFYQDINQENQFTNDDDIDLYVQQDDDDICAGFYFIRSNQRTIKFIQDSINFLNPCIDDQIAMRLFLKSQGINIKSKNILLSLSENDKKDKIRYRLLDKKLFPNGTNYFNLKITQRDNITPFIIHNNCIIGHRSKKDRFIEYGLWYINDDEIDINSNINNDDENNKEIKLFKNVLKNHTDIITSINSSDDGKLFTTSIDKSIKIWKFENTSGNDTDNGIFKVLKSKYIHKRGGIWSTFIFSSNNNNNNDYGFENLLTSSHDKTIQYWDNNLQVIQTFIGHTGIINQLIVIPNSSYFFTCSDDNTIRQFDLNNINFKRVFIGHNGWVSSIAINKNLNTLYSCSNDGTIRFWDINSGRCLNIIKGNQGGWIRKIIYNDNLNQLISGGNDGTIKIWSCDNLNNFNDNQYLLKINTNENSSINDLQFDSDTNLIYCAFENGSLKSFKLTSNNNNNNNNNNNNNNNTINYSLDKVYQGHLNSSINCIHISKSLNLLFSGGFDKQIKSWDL

For `C[C@@H]1O[C@@H](Oc2ccc([N+](=O)[O-])cc2)[C@@H](O)[C@H](O)[C@@H]1O` [F-pNP], the “radiometric galactosyl transfer from UDP-[3H]Gal” value is “Comparison of AgtA activity towards F-pNP and FGGn-pNP”.
